Results from patent US8637672B2 (Deciphera Pharmaceuticals, LLC, priority 2010, dated 2014).

What was measured:
Type in all cases: biochemical
c-MET kinase = target: T1, c-MET kinase (Homo sapiens, UniProt P08581); assay: c-MET Kinase Assay; details: for fold potency versus c-MET kinase relative to corresponding mono-fluoro analog: Compound D vs Compound E, Compound G vs Compound F; for IC50: methods of the Biological Data section
T1 construct: His6 with TEV-site leader (N); purchased Invitrogen PV3143
Protocol: Activity of c-MET kinase (Seq. ID No. 2) was determined by following the production of ADP from the kinase reaction through coupling with the pyruvate kinase/lactate dehydrogenase system (e.g., Schindler et al. Science 2000, 289, pp. 1938-1942). In this assay, the oxidation of NADH (thus the decrease at A340 nm) was continuously monitored spectrophotometrically. The reaction mixture (100 μl) contained c-MET (c-MET residues: 956-1390, from Invitrogen, catalogue #PV3143, 6 nM), polyE4Y (1 mg/mL), MgCl2 (10 mM), pyruvate kinase (4 units), lactate dehydrogenase (0.7 units), phosphoenol pyruvate (1 mM), and NADH (0.28 mM) in 90 mM Tris buffer containing 0.25 mM DTT, 0.2% octyl-glucoside and 1% DMSO, 7.5. Test compounds were incubated with c-MET (Seq. ID No. 2) and other reaction reagents at 22° C. for 0.5 h before ATP (100 μM) was added to start the reaction. The absorption at 340 nm was monitored continuously for 2 hours at 30° C. on Polarstar Optima plate reader (BMG). The reaction rate was calculated using the 1.0 to 2.0 h time frame. Percent inhibition was obtained by comparison of reaction rate with that of a control (i.e., with no test compound). IC50 values were calculated from a series of percent inhibition values determined at a range of inhibitor concentrations using software routines as implemented in the GraphPad Prism software package.

RON kinase = target: T2, RON kinase (Homo sapiens, UniProt Q04912); assay: RON Kinase Assay; details: for IC50: methods of the Biological Data section; for Fold Selectivity RON/MET: ratio RON IC50 / MET IC50
T2 construct: GST tagged recombinant human RON, amino acids 983-1400; GST; host or cells: insect cells
T2 sequence (Q04912 983-1400): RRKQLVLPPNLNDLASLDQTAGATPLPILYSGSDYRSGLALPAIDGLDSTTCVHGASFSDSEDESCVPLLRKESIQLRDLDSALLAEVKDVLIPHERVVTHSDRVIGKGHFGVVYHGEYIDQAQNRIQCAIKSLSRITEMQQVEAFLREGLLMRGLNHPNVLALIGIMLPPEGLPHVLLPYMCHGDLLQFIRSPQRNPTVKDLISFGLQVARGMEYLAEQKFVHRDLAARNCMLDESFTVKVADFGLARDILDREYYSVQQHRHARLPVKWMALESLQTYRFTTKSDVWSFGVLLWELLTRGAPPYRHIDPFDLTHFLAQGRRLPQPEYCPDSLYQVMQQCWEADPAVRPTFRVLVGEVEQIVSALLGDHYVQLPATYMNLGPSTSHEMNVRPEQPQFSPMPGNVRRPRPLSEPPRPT
Protocol: Activity of RON kinase was determined by a radioactive filtration binding assay where incorporation of ^33P from ^33P-γ-ATP to the substrate was measured. In this assay, detection of ^33P was indicative of RON phosphorylation activity which was directly proportional to the amount of phosphorylated peptide substrate ([…], SEQ ID NO: 4). Initially, the reaction mixture contained: 400 nM RON, 20 mM HEPES, pH 7.5, 10 mM MgCl2, 2 mM MnCl2, 1 mM EGTA, 0.02% Brij 35, 0.02 mg/mL BSA, 0.1 mM Na3VO4, and 2 mM DTT. The reaction mixture was incubated with compound at room temperature for 30 minutes. To initiate the reaction, an equal volume of 20 μM ATP and 0.4 mg/mL peptide substrate were added and then incubated at room temperature for 2 hours. The final assay conditions were: 200 nM RON, 10 μM ATP, 0.2 mg/mL substrate 20 mM HEPES, pH 7.5, 10 mM MgCl2, 1 mM EGTA, 0.02% Brij 35, 0.02 mg/mL BSA, 0.1 mM Na3VO4, 2 mM DTT, and 1% DMSO. IC50 values were calculated from a series of % Activity values determined at a range of inhibitor concentrations using software routines as implemented in the GraphPad Prism software package.
GST tagged recombinant human RON, amino acids 983-1400. Expressed in insect cells.

RET kinase = target: T3, RET kinase (Homo sapiens, UniProt P07949); assay: RET Kinase Assay; details: for IC50: methods of the Biological Data section; for Fold Selectivity RET/MET: ratio RET IC50 / MET IC50
T3 construct: GST tagged recombinant human RET, amino acids 658-1114; GST; purchased Invitrogen; host or cells: insect cells
T3 sequence (P07949 658-1114): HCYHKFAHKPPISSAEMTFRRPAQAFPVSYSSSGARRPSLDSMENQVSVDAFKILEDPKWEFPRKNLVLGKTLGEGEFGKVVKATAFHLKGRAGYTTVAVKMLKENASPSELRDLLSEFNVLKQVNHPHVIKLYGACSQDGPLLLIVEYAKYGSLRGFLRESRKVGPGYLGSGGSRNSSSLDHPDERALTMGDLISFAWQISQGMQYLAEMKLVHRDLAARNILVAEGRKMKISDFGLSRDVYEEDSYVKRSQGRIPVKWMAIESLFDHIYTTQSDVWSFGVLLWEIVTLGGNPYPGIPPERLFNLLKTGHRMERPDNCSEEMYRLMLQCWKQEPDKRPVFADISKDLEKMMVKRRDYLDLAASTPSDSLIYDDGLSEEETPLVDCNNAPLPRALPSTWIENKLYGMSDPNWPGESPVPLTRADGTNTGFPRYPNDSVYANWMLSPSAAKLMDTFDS
Protocol: Activity of RET kinase was determined by following the production of ADP from the kinase reaction through coupling with the pyruvate kinase/lactate dehydrogenase system (see e.g., Schindler et al. Science (2000) 289: 1938-1942). In this assay, the oxidation of NADH (thus the decrease at A340 nm) was continuously monitored spectrophotometrically. The reaction mixture (100 μl) contained RET (amino acid residues 658-1114, from Invitrogen, 2 nM), polyE4Y (1.5 mg/ml), MgCl2 (18 mM), pyruvate kinase (4 units), lactate dehydrogenase (0.7 units), phosphoenol pyruvate (1 mM), and NADH (0.28 mM) in 90 mM […] buffer containing 0.2% octyl-glucoside, 1 mM DTT and 1% DMSO, pH 7.5. Test compounds were incubated with RET kinase and other reaction reagents at 22° C. for <2 min before ATP (500 μM) was added to start the reaction. The absorption at 340 nm was monitored continuously for 3 hours at 30° C. on BioTek Synergy 2 Reader. The reaction rate was calculated using the 1 to 2 h time frame. Percent inhibition was obtained by comparison of reaction rate with that of a control (i.e., with no test compound). IC50 values were calculated from a series of percent inhibition values determined at a range of inhibitor concentrations using software routines as implemented in the GraphPad Prism software package.
GST tagged recombinant human RET, amino acids 658-1114. Expressed in insect cells.

T1 sequence (P08581 with tags, fused parts or gaps): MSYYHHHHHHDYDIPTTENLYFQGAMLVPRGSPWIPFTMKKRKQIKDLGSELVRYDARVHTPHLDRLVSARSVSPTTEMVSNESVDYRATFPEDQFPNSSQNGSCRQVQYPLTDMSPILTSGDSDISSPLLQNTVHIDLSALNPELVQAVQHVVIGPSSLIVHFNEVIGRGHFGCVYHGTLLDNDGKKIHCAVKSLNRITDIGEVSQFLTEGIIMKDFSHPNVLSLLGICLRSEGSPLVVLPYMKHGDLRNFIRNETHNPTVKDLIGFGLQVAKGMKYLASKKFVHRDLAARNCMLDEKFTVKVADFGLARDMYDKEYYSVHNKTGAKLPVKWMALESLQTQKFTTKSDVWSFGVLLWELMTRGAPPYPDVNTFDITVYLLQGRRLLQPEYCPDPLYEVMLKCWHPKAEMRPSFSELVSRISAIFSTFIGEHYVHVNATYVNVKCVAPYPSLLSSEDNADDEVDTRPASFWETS

fold potency versus c-MET kinase relative to corresponding mono-fluoro analog (c-MET kinase) [fold] | IC50 (c-MET kinase) [nM] | IC50 (RON kinase) [nM] | Fold Selectivity RON/MET (RON kinase) | IC50 (RET kinase) [nM] | Fold Selectivity RET/MET (RET kinase) | SMILES
6.5 | 4 | ≥ 5000 | >1,250 | > 3300 | >825 | CC(=O)Nc1cc(Oc2cc(F)c(NC(=O)C3(C(=O)Nc4ccc(F)cc4)CC3)cc2F)ccn1 [Compound D, N-(4-(2-acetamidopyridin-4-yloxy)-2,5-difluorophenyl)-N′-(4-fluorophenyl)cyclopropane-1,1-dicarboxamide]
 | 26 | 100 | 3.85 | 43 | 1.65 | CC(=O)Nc1cc(Oc2ccc(NC(=O)C3(C(=O)Nc4ccc(F)cc4)CC3)c(F)c2)ccn1 [Compound E, N-(4-(2-acetamidopyridin-4-yloxy)-2-fluorophenyl)-N′-(4-fluorophenyl)cyclopropane-1,1-dicarboxamide]
1.1 |  |  | 0.04 |  | 0.81 | CN1CCN(C2CCN(C(=O)Nc3cc(Oc4cc(F)c(NC(=O)C5(C(=O)Nc6ccc(F)cc6)CC5)cc4F)ccn3)CC2)CC1 [Compound G]
 |  |  | 0.75 |  | 7 | O=C(Nc1cc(Oc2cc(F)c(NC(=O)C3(C(=O)Nc4ccc(F)cc4)CC3)cc2F)ccn1)N1CC(CO)C1 [Compound H]
